Source: the supplement of paper PMC10307832

Assays:
Assay in all cases: relative viability (nuclei count vs DMSO), 5 days (fraction); higher = more cells survive
[1] = compound: Cc1ccc2nc(NCCN)c3ncc(C)n3c2c1 + NC(=O)Nc1cc(-c2cccc(F)c2)sc1C(=O)N[C@H]1CCCNC1 [AZD7762] (partner 0.2 µM)
Outline: (§1)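 A single step with final 0.05% Triton X-100, 1% formaldehyde and 1 ug/ml Hoechst fixed the cells and stained nuclei 5 days after treatment. Lung cancer cell lines in 1536-well plates had been treated by pin tool the day after seeding with one drug alone or a fixed anchor-drug dose plus five library-drug doses (not always all listed) in √10 steps, and nuclei were counted on 4× images. Relative viability is the ratio of nuclei in treated wells to nuclei in vehicle wells, taken as the median of duplicate plates.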

[2] = compound: Cc1ccc2nc(NCCN)c3ncc(C)n3c2c1 + Cc1cc(Nc2cc(N3CCN(C)CC3)nc(Sc3ccc(NC(=O)C4CC4)cc3)n2)n[nH]1 [Tozasertib] (partner 0.1 µM)
Outline: as §1

[3] = compound: Cc1ccc2nc(NCCN)c3ncc(C)n3c2c1 + Nc1nc2[nH]cc(CCc3ccc(C(=O)N[C@@H](CCC(=O)O)C(=O)O)cc3)c2c(=O)[nH]1 [Pemetrexed] (partner 0.2 µM)
Outline: as §1

Salubrinal + Phenformin = compound: O=C(/C=C/c1ccccc1)NC(NC(=S)Nc1cccc2cccnc12)C(Cl)(Cl)Cl [Salubrinal] + N=C(N)NC(=N)NCCc1ccccc1 [Phenformin] (partner 250 µM)
Outline: as §1

| Cell Line | relative viability ([1]; first compound 0.04 µM) | relative viability ([1]; first compound 0.1265 µM) | relative viability ([1]; first compound 0.4 µM) | relative viability ([1]; first compound 1.265 µM) | relative viability ([1]; first compound 4 µM) | relative viability ([2]; first compound 0.04 µM) | relative viability ([2]; first compound 0.1265 µM) | relative viability ([2]; first compound 0.4 µM) | relative viability ([2]; first compound 1.265 µM) | relative viability ([2]; first compound 4 µM) | relative viability ([3]; first compound 0.04 µM) | relative viability ([3]; first compound 0.1265 µM) | relative viability ([3]; first compound 0.4 µM) | relative viability ([3]; first compound 1.265 µM) | relative viability ([3]; first compound 4 µM) | relative viability (Salubrinal + Phenformin; first compound 0.08 µM) | relative viability (Salubrinal + Phenformin; first compound 0.253 µM) | relative viability (Salubrinal + Phenformin; first compound 0.8 µM) | relative viability (Salubrinal + Phenformin; first compound 2.53 µM) | relative viability (Salubrinal + Phenformin; first compound 8 µM) |
| --- | --- | --- | --- | --- | --- | --- | --- | --- | --- | --- | --- | --- | --- | --- | --- | --- | --- | --- | --- | --- |
| HCC-827 | 0.222 | 0.265 | 0.224 | 0.207 | 0.18 | 0.465 | 0.433 | 0.454 | 0.459 | 0.425 | 0.261 | 0.242 | 0.273 | 0.24 | 0.266 | 0.408 | 0.521 | 0.356 | 0.392 | 0.341 |
| HOP-62 | 0.849 | 0.638 | 0.528 | 0.543 | 0.595 | 0.383 | 0.379 | 0.396 | 0.367 | 0.402 | 0.298 | 0.303 | 0.348 | 0.352 | 0.339 | 0.85 | 0.491 | 0.799 | 0.702 | 0.53 |
| LC-2-ad | 0.86 | 0.806 | 0.822 | 0.86 | 0.795 | 0.445 | 0.491 | 0.533 | 0.387 | 0.42 | 0.303 | 0.276 | 0.268 | 0.275 | 0.291 | 0.65 | 0.609 | 0.744 | 0.621 | 0.596 |
| LCLC-97TM1 | 0.409 | 0.321 | 0.216 | 0.269 | 0.225 | 0.201 | 0.215 | 0.177 | 0.218 | 0.187 | 0.171 | 0.178 | 0.211 | 0.175 | 0.145 | 0.388 | 0.413 | 0.435 | 0.462 | 0.488 |
| LCLC-103H | 0.877 | 0.821 | 0.654 | 0.772 | 0.752 | 0.426 | 0.525 | 0.384 | 0.427 | 0.439 | 0.503 | 0.51 | 0.5 | 0.467 | 0.494 | 0.388 | 0.282 | 0.318 | 0.38 | 0.308 |
| LK-2 | 0.393 | 0.612 | – | – | 0.347 | 0.171 | 0.174 | 0.152 | 0.154 | 0.179 | 0.252 | 0.297 | – | – | 0.191 | 0.502 | 0.466 | 0.675 | 0.3 | 0.395 |
| NCI-H520 | – | – | – | – | – | 0.476 | 0.458 | 0.371 | 0.424 | 0.405 | 0.655 | 0.62 | 0.651 | 0.687 | 0.574 | 0.56 | 0.556 | 0.831 | 0.646 | 0.54 |
| NCI-H661 | – | – | – | – | – | 0.358 | 0.353 | 0.366 | 0.321 | 0.372 | 0.909 | 0.949 | 0.958 | 0.891 | 0.868 | 0.278 | 0.283 | 0.28 | 0.288 | 0.275 |
| NCI-H727 | 0.611 | – | 0.609 | 0.595 | 0.573 | 0.599 | 0.688 | 0.704 | 0.578 | 0.641 | – | – | – | – | – | 0.41 | 0.461 | 0.491 | 0.504 | 0.688 |
